System: HBMEC
Test: In vitro flow chamber: T cell-rolling on HBMEC, long-term conditions
Format: cell-based, human
Description: Human brain microvascular endothelial cells (HBMEC) (#1000, Sciencell Research Laboratories) or human umbilical vein endothelial cells (HUVEC) (#C-12200, Promocell) were used as endothelial cell-model. Cryopreserved HBMEC at passage 1 (>5×10^5 cells/ml) were first cultivated in fibronectin-coated Nunclon-treated 75 cm^2 cell culture flasks (#156499, Nunc) at 37° C. and 5% CO2 in a Heraeus Cytoperm 2 (Thermo Scientific) according to the manufacturer's instructions. Sub-cultivation of HBMEC was done with the Detach Kit (#C-41200, Promocell) consisting of HEPES-buffered balanced salt solution (#C-40000, Promocell), trypsin-EDTA solution (0.04%/0.03%) (#C-41000, Promocell) and trypsin neutralization solution (TNS, #C-41100, Promocell). Briefly, the medium was aspirated from the HBMEC-layer and cells were washed with 2 ml of HEPES-buffered balanced salt solution. Addition of 2 ml of trypsin-EDTA solution for 1-5 min at room temperature led to detachment of HBMEC from the flask bottom. Inactivation of trypsin-EDTA solution was performed by addition of 2 ml of trypsin neutralization solution to the cell suspension. Cells were centrifuged at 300 g for 4 min in a Heraeus Megafuge 40 (Thermo Scientific) and seeded at a cell density of 5×10^5 cells per gelatin-coated 75 cm^2 cell culture flask (#L7230, Biochrom). HBMEC for rolling and adhesion experiments were cultivated in RPMI 1640 medium (#FG1215, Biochrom) supplemented with Nu-Serum IV (10%) (#355505, BD Biosciences), dialyzed FBS (10%) (#SZ0115, Biochrom), MEM-vitamins (1%) (#K0373, Biochrom), L-glutamine (1%) (#K0283, Biochrom), sodium-pyruvate (1%) (#L0473, Biochrom), heparin (10 U/ml) (#L6510, Biochrom), and […] cell growth factor ECGS (30 μg/ml) (#02-102, Millipore). Cultivation of HUVEC was done in endothelial cell growth medium (#C-22010, Promocell) supplemented with dialyzed FBS (10%) (#SZ0115, Biochrom) using gelatin-coated 75 cm^2 cell culture flasks. Sub-cultivation of HUVEC was performed with the Detach Kit ([…], Promocell) and cells were seeded at a cell density of 4.0-7.5×10^5 cells per 75 cm^2 cell culture flask.
Isolation of human PBMC from blood was performed by modified density gradient centrifugation as described elsewhere. Briefly, 15-20 ml of freshly drawn heparinized blood was transferred in Biocoll (#L6115, Biochrom)-containing Leukosep tubes (#227290, Greiner bio-one) and centrifuged in a Hettich Rotanta 460 RS Type 5606 (Hettich Laborapparate) at 1066 g for 15 min. After removal of the plasma fraction the PBMC containing phase was transferred in a new tube and washed twice with FACS-buffer (D-PBS #L1820, 5% FBS #SO115, Biochrom). Erythrocyte lysis was performed with lysis buffer (8.29 g/l NH4Cl, 1.00 g/l KHCO3, 0.037 g/l EDTA) for 5 min at room temperature. For subsequent purification of untouched T cells the human Pan T cell-isolation Kit II (#130-091-156, Miltenyi Biotec) was used according to the manufacturer's instructions.
The ibidi Pump System (#10902, ibidi) was used for cultivation of endothelial cells under flow conditions as well as for performing adhesion and rolling assays of human T cells on endothelial cells. The system consists of the ibidi Pump (#10905, ibidi) and the ibidi Fluidic Unit (#10903, ibidi) which work together to generate a unidirectional flow of medium in an attached slide with a defined channel height. The system is controlled by the ibidi Pump Control software (#10908, notebook+software, ibidi). For cultivation of HBMEC or HUVEC under flow conditions, HBMEC or HUVEC were seeded at a cell density of 2.5×10^6 cells/ml into μ-slide I^0.4 Luer Collagen IV (#80172, ibidi) or μ-slide I^0.4 Luer ibiTreat (#80176, ibidi), respectively according to the manufacturer's instructions and cultivated with a perfusion set “yellow/green” (#10964, ibidi) for 48 h under wall shear stress of 5 or 10 dyn/cm^2, respectively. […]

## Blinatumomab: recombinant CD19×CD3 bispecific scFv antibody consisting of four immunoglobulin variable domains assembled into a single polypeptide chain
10 ng/ml Blinatumomab, 0 min, long-term
  T cell-rolling velocity immediately after addition: no decrease of T cell-rolling velocity was detectable
10 ng/ml Blinatumomab, 45 min after addition, long-term, control −AMG 103 323±78
  mean T cell-rolling velocity±SD: 209±40 μm/sec
histamine-stimulated HBMEC, +AMG 103 10 ng/ml, 45 min, control −AMG 103 430±92
  mean T cell-rolling velocity±SD: 281±96 μm/sec
non-stimulated HBMEC (PPS experiment), +AMG 103 10 ng/ml, 40 min, control −AMG 103 399±153
  mean T cell-rolling velocity±SD: 263±66 μm/sec
non-stimulated HBMEC (anti-CD11a experiment), +AMG 103 10 ng/ml, 10 min, control −AMG 103 304±40
  mean T cell-rolling velocity±SD: 214 μm/sec
non-stimulated HBMEC (anti-CD162 experiment), +AMG 103 10 ng/ml, 45 min, control −AMG 103 539±149
  mean T cell-rolling velocity±SD: 428±89 μm/sec
non-stimulated HBMEC (anti-ICAM-1 experiment), +AMG 103 10 ng/ml, 30 min, control −AMG 103 407±90
  mean T cell-rolling velocity±SD: 335 μm/sec
non-stimulated HBMEC (anti-P-selectin experiment), +AMG 103 10 ng/ml, 40 min, control −AMG 103 449±90
  mean T cell-rolling velocity±SD: 370±55 μm/sec
non-stimulated HBMEC (natalizumab experiment), +AMG 103 10 ng/ml, 40 min, control −AMG 103 482±149
  mean T cell-rolling velocity±SD: 359±102 μm/sec
non-stimulated HBMEC (recombinant P-selectin experiment), +AMG 103 10 ng/ml, 45 min, control −AMG 103 386±77
  mean T cell-rolling velocity±SD: 340±68 μm/sec

From US9688760B2, “Anti-leukocyte adhesion for the mitigation of potential adverse events caused by CD3-specific binding domains” (AMGEN RESEARCH (MUNICH) GMBH, priority 2013, dated 2017)
